Source: ChEMBL document CHEMBL3826916, “Synthesis and potent antiprotozoal activity of mono/di amidino 2-anilinobenzimidazoles versus Plasmodium falciparum and Trypanosoma brucei rhodesiense” (Bioorg Med Chem, 2016)

How the values were obtained:
[1] = system: Plasmodium falciparum; assay: Antiplasmodial activity against chloroquine and pyrimethamine resistant Plasmodium falciparum K1 infected in human erythrocytes after 48 hrs by [3H]hypoxanthine incorporation assay; type: functional, organism-based
[2] = Selectivity index, ratio of IC50 for rat L6 cells to IC50 for chloroquine and pyrimethamine resistant Plasmodium falciparum K1 infected in human erythrocytes; type: toxicity, cell-based; conditions: read-out: Ratio IC50
[3] = system: Trypanosoma brucei rhodesiense; assay: Antiparasitic activity against bloodstream forms of Trypanosoma brucei rhodesiense STIB 900 assessed as growth inhibition after 72 hrs by resazurin assay; type: functional, organism-based; conditions: STIB 900, 72 h
[4] = Selectivity index, ratio of IC50 for rat L6 cells to IC50 for bloodstream forms of Trypanosoma brucei rhodesiense STIB 900; type: toxicity, cell-based; conditions: read-out: Ratio IC50
[5] = system: L6; assay: Cytotoxicity against rat L6 cells by alamar blue assay; type: cell-based

Structure (SMILES)	IC50 [1]	selectivity ratio [2]	IC50 [3]	selectivity ratio [4]	IC50 [5]
CC(C)NC(=N)c1ccc(Nc2nc3cc(C(=N)NC(C)C)ccc3[nH]2)cc1	0.164 µM	660	0.027 µM	4000	108 µM
N=C(N)c1ccc(Nc2nc3cc(Cl)ccc3[nH]2)cc1	0.877 µM	53	19.6 µM	2.4	46.4 µM
N=C(N)c1ccc2[nH]c(Nc3ccc(Cl)c(Cl)c3)nc2c1	0.138 µM	280	21.8 µM	1.8	39.1 µM
N=C(N)c1ccc(Nc2nc3ccccc3[nH]2)cc1	3.29 µM	37	15.8 µM	7.7	123 µM
N=C(N)c1ccc2[nH]c(Nc3ccc(Cl)cc3)nc2c1	0.688 µM	60	17 µM	2.4	41.6 µM
Cc1cc2[nH]c(Nc3ccc(C(=N)N)cc3)nc2cc1Cl	0.795 µM	29	20.7 µM	1.1	23.2 µM
N=C(N)c1ccc(Nc2nc3cc(C(=N)N)ccc3[nH]2)cc1	0.0675 µM	1560	0.00466 µM	22600	105 µM
N=C(N)c1ccc(Nc2nc3cc(C(F)(F)F)ccc3[nH]2)cc1	0.853 µM	49	20.9 µM	2	41.4 µM
N=C(NC1CCCCC1)c1ccc(Nc2nc3cc(C(=N)NC4CCCCC4)ccc3[nH]2)cc1	0.0459 µM	1390	0.0051 µM	12500	63.7 µM
N=C(N)c1ccc2[nH]c(Nc3ccccc3)nc2c1	5.46 µM	43	54.7 µM	4.3	237 µM
CCC(C)NC(=N)c1ccc(Nc2nc3cc(C(=N)NC(C)CC)ccc3[nH]2)cc1 (stereo not given)	0.294 µM	320	0.0455 µM	2060	93.6 µM
CC(C)CNC(=N)c1ccc(Nc2nc3cc(C(=N)NCC(C)C)ccc3[nH]2)cc1	0.0913 µM	925	0.0095 µM	8880	84.4 µM
